Where “and” joins values, the source holds several entries; their conditions need not be identical. Equal values may be shown once. Read-outs that look alike come from different tables or passages of the source.
What was measured:
human hepatocytes = experiment: Stability and metabolites in cryopreserved hepatocytes, human; format: in vitro ADME
Description: The formation of SRA737-related metabolites was determined in cryopreserved hepatocytes from human, mouse, rat, dog, minipig and monkey samples after incubation with SRA737 at a nominal concentration of 10 μM for up to 4 hours. […] In the human hepatocyte preparation, approximately 67% of the parent remained after 4 hours of incubation compared to 75% and 7% in the rat and minipig preparations, respectively. Eight human SRA737 metabolites were observed. All SRA737 metabolites formed by human hepatocytes were also formed by monkey hepatocytes. Six metabolites were present at equal or greater abundance in the monkey.

CYP 2C9 = CYP 2C9 (Homo sapiens, UniProt P11712); experiment: CYP inhibition, 2C9; format: in vitro ADME; conditions: highest concentration investigated
[1] = Caco-2 permeability assay; format: in vitro ADME; conditions: human
Description: (§1) The membrane permeability of SRA737 was assessed in the parallel artificial membrane permeability assay (PAMPA) and Caco-2 assays. Permeability in the PAMPA assay was classified as low.

Calu6 human (NSCLC) = experiment: In vivo efficacy, Calu6 xenograft model; set-up: species or system mouse; conditions: data not shown
Description: (§2) A program of in vivo efficacy studies was performed to assess the activity of SRA737 in combination with genotoxic chemotherapy and targeted agents, and as monotherapy.
(§3) One of these models also carried a MYCN amplification. A fourth HGSOC PDX model with partial resistance to PARPi was also sensitive to high dose SRA737 monotherapy.

OVCAR3 model of HGSOC = experiment: In vivo efficacy, OVCAR3 CDX model; set-up: species or system mouse; conditions: data not shown
Description: as §2, §3

[2] = SRA737 plasma and tumor concentrations in HT29 xenograft model; format: in vivo, mouse; set-up: Tumor (6 h) concentration / Tumor (24 h) concentration: unit not given here; conditions: for concentration at 6 h / concentration at 24 h: plasma
Description: For each dose, columns from left to right are concentrations for plasma at 6 hours, plasma at 24 hours, tumor at 6 hours, and tumor at 24 hours, respectively.
The effect of SRA737 on Gemcitabine induced CHK1 S296 autophosphorylation was assessed as described in Walton et al. (Oncotarget. 2016 Jan. 19; 7(3): 2329-2342), herein incorporated by reference for all it teaches. Briefly, mice bearing HT29 tumor xenografts were administered (i) vehicle control or (ii) gemcitabine (100 mg/kg in saline, IV) or (iii) a combination of SRA737 ([…]) and gemcitabine (100 mg/kg) with SRA737 administered 24 hours following gemcitabine administration (n=3 per time point per treatment). […] Exposure in the tumor was greater than 10-fold higher than in plasma. The circulating plasma concentration at this 24-hour timepoint corresponded to a free drug concentration of approximately 6 nM (2 ng/mL) based on plasma protein binding in mice of 94%.

[3] = GLP 28-day repeat oral dose toxicity and toxicokinetics, monkey; format: in vivo; conditions: for AUC(0-t) / Cmax / half-life: po, daily dosing for 28 days
Description: Reference source not found.6.

SW620 mouse colon cancer = experiment: In vivo efficacy, SW620 xenograft model; conditions: in combination with standard-dose gemcitabine; data not shown
Description: as §2, §3

Renca (renal cancer) = experiment: In vivo efficacy, Renca syngeneic model; set-up: species or system mouse; conditions: data not shown
Description: as §2, §3

[4] = Parallel artificial membrane permeability assay (PAMPA); format: in vitro ADME
Description: as §1

[5] = Plasma protein binding, ultracentrifugation, human; format: in vitro ADME; conditions: for Percentage Bound / Percentage Free: Human plasma
Description: (§4) The PK of SRA737 have been determined in the mouse, rat, dog and monkey following oral and IV administration (Table 3). […] An acceptable terminal elimination t1/2 was also observed in each species. […] The plasma protein binding of SRA737 at 1 and 10 μM was examined in mouse, minipig, monkey and human plasma using ultracentrifugation and in dog plasma (10 μM) using rapid equilibrium dialysis.

[6] = Plasma protein binding, ultracentrifugation, mouse; format: in vitro ADME; conditions: for Percentage Bound / Percentage Free: Mouse plasma
Description: as §4

CYP 3A4 = CYP 3A4 (Homo sapiens, UniProt P08684); experiment: CYP inhibition, 3A4; format: in vitro ADME; conditions: highest concentration investigated
[7] = in vivo, Monkey Female, 2 mg/kg/day
[8] = in vivo, Monkey Female, 10 mg/kg/day
[9] = in vivo, Monkey Female, 20 mg/kg/day (NOAEL)
[10] = in vivo, Monkey Male, 2 mg/kg/day
[11] = in vivo, Monkey Male, 10 mg/kg/day
[12] = in vivo, Monkey Male, 20 mg/kg/day (NOAEL)

CYP 3A4, sequence (P08684 whole entry): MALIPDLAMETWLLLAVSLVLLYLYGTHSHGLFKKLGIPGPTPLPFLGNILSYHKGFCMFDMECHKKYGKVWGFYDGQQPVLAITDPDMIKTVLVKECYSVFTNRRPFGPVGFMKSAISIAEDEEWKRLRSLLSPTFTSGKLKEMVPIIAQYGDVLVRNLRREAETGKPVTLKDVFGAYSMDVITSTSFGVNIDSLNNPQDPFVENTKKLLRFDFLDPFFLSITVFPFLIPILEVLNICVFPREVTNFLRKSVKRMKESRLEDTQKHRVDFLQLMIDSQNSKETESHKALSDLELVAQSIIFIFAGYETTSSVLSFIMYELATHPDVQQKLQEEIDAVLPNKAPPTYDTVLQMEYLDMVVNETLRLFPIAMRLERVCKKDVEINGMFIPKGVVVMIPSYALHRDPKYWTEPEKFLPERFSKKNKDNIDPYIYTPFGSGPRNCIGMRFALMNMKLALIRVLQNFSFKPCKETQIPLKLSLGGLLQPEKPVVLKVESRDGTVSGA
CYP 2C9, sequence (P11712 whole entry): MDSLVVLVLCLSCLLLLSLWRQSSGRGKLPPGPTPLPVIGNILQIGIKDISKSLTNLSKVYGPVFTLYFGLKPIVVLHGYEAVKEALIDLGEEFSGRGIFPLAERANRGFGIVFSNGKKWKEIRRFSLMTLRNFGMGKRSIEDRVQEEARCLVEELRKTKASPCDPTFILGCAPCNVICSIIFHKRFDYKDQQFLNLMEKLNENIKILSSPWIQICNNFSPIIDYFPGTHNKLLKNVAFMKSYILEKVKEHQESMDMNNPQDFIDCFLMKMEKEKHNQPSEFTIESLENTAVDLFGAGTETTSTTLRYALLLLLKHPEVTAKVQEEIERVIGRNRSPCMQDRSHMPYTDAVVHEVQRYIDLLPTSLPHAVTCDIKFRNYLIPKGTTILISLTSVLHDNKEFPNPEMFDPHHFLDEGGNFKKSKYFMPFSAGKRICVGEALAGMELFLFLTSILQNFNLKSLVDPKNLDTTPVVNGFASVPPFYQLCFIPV

With `N#Cc1cnc(Nc2cc(NCC3CNCCO3)c(C(F)(F)F)cn2)cn1` (stereo not shown) [SRA737, 5-[[4-[[morpholin-2-yl]methylamino]-5-(trifluoromethyl)-2-pyridyl]amino]pyrazine-2-carbonitrile] the human-specific metabolites (human hepatocytes; compared with mouse, rat, dog, minipig and monkey hepatocytes) was “No human-specific metabolites”, the “number of human SRA737 metabolites observed” value (human hepatocytes; human hepatocytes, 10 μM, up to 4 hours) was “Eight” and the parent remained (human hepatocytes; human hepatocytes, 10 μM, after 4 hours of incubation) was “approximately 67%”. It also gave an IC50 (CYP 2C9) of 10 to 50 µM, a Papp at 10 μM [1] of 20.7 ± 9.1 ×10⁻⁶ cm/s and an efflux ratio at 10 μM ([1]; read-out: efflux ratio (A>B/B>A)) of 0.8. The antitumor activity (Calu6 human (NSCLC); in combination with standard-dose gemcitabine) was “Significant, dose-dependent antitumor activity”, the synergy (Calu6 human (NSCLC); with gemcitabine and carboplatin) was “Synergy” and the single agent efficacy (OVCAR3 model of HGSOC; single agent) was “single agent efficacy”. For the same compound, the synergy (OVCAR3 model of HGSOC; with low-dose gemcitabine) was “Synergy”, the “Tumor (6 h) concentration” value ([2]; 3.125 mg/kg) was 3183.276 and the “Tumor (24 h) concentration” value ([2]; 3.125 mg/kg) was 645.7623. For the same compound, the “Tumor (6 h) concentration” value ([2]; 6.25 mg/kg) was 4011.501, the “Tumor (24 h) concentration” value ([2]; 6.25 mg/kg) was 965.7797 and the “Tumor (6 h) concentration” value ([2]; 12.5 mg/kg) was 19009.57. For the same compound, the “Tumor (24 h) concentration” value ([2]; 12.5 mg/kg) was 3974.933, the “Tumor (6 h) concentration” value ([2]; 25 mg/kg) was 37516 and the “Tumor (24 h) concentration” value ([2]; 25 mg/kg) was 16289.53. For the same compound, the “Tumor (6 h) concentration” value ([2]; 50 mg/kg) was 76331.2, the “Tumor (24 h) concentration” value ([2]; 50 mg/kg) was 27483.73 and the “Tumor (6 h) concentration” value ([2]; 100 mg/kg) was 131506.7. For the same compound, the “Tumor (24 h) concentration” value ([2]; 100 mg/kg) was 101764.1, the concentration at 6 h ([2]; mouse, oral, 3.125 mg/kg) was 194 nM and the concentration at 24 h ([2]; mouse, oral, 3.125 mg/kg, read-out: Plasma (24 h) concentration) was 0 nM. For the same compound, the concentration at 6 h ([2]; mouse, oral, 6.25 mg/kg) was 323 nM, the concentration at 24 h ([2]; mouse, oral, 6.25 mg/kg, read-out: Plasma (24 h) concentration) was 13.1 nM and the concentration at 24 h ([2]; mouse, oral, 12.5 mg/kg, 24-hour timepoint, based on plasma protein binding in mice of 94%, read-out: free drug concentration in plasma) was ~6 nM and ~2 ng/mL. The concentration at 24 h ([2]; mouse, oral, 12.5 mg/kg, at 24 hours, approximate, read-out: minimum (total) plasma concentration corresponding to inhibition of pS296 Chk1) was ~100 nM, the concentration at 24 h ([2]; mouse, oral, 12.5 mg/kg, at 24 hours, read-out: minimum (total) plasma concentration corresponding to inhibition of pS296 Chk1) was ~40 ng/mL and the concentration at 24 h ([2]; mouse, oral, 12.5 mg/kg, read-out: Plasma (24 h) concentration) was 78 ± 27 nM. The Kp ([2]; mouse, tumor, oral, HT29 xenograft mice, read-out: exposure in the tumor relative to plasma) was > 10, the AUC(0-t) [3, 7] was 2580 ng·h/mL and the Cmax [3, 7] was 519 ng/mL. It also gave a half-life [3, 7] of 8.74 h, an AUC(0-t) [3, 8] of 12900 ng·h/mL and a Cmax [3, 8] of 1870 ng/mL. The half-life [3, 8] was 6.58 h, the AUC(0-t) [3, 9] was 24200 ng·h/mL and the Cmax [3, 9] was 2320 ng/mL. For the same compound, the half-life [3, 9] was 6 h, the AUC(0-t) [3, 10] was 3240 ng·h/mL and the Cmax [3, 10] was 365 ng/mL. The half-life [3, 10] was 6.73 h, the AUC(0-t) [3, 11] was 17900 ng·h/mL and the Cmax [3, 11] was 2070 ng/mL. It also gave a half-life [3, 11] of 8.34 h, an AUC(0-t) [3, 12] of 20700 ng·h/mL and a Cmax [3, 12] of 3170 ng/mL. It also gave a half-life [3, 12] of 6.84 h, an NOAEL at 28 days ([3]; in vivo, monkey, 28-day repeat oral dose, highest dose tested) of 20 mg/kg/day and an NOAEL ([3]; monkey, 28-day repeat oral dose, highest dose tested) of 240 mg/m^2/day. For the same compound, the toxicological findings ([3]; pivotal monkey toxicity study) was “absence of toxicological findings”, the antitumor activity (SW620 mouse colon cancer) was “Significant, dose-dependent antitumor activity” and the single agent efficacy (Renca (renal cancer)) was “single agent efficacy”. The “permeability in the PAMPA assay” value [4] was “low”, the “Percentage Bound” value ([5]; 1 μM) was 87.7% and the “Percentage Free” value ([5]; 1 μM) was 12.4%. For the same compound, the “Percentage Bound” value ([5]; 10 μM) was 87.2%, the “Percentage Free” value ([5]; 10 μM) was 12.8% and the fraction unbound ([5]; human, plasma, humans, summary of 1 and 10 μM) was ~0.13. The “Percentage Bound” value ([6]; 1 μM) was 94.5%, the “Percentage Free” value ([6]; 1 μM) was 5.5% and the “Percentage Bound” value ([6]; 10 μM) was 93.4%. For the same compound, the “Percentage Free” value ([6]; 10 μM) was 6.6%, the fraction unbound ([6]; mouse, plasma, summary of 1 and 10 μM) was 0.06 and the plasma protein binding ([6]; mouse, summary of 1 and 10 μM) was ~94%. For the same compound, the IC50 (CYP 3A4) was 10 to 50 µM.

Source: US20200397796A1, “METHODS OF TREATMENT OF CANCER COMPRISING CHK1 INHIBITORS” (SIERRA ONCOLOGY, INC., priority 2018, published 2020)
